Results as given in the supplement of paper PMC10307832.

Experiments:
Assay in all cases: relative viability (nuclei count vs DMSO), 5 days (fraction); higher = more cells survive
BMX-IN-1 + Linsitinib = compound: C=CC(=O)Nc1cc(-n2c(=O)ccc3cnc4ccc(-c5ccc(NS(C)(=O)=O)cc5)cc4c32)ccc1C [BMX-IN-1] + C[C@]1(O)C[C@@H](c2nc(-c3ccc4ccc(-c5ccccc5)nc4c3)c3c(N)nccn32)C1 [Linsitinib] (partner 1 µM)
Procedure, shortened: (§1)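 Lung cancer cell lines were pin-tool dosed in 1536-well plates on the day after seeding, with either a lone drug or a fixed anchor-drug dose plus five library-drug doses (not always all listed) in √10 steps. Nuclei were counted on 4× images after 5 days. Relative viability is the ratio of treated-well to vehicle-well nuclei counts, with each value a median of duplicate plates.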

Ibrutinib + Navitoclax = compound: C=CC(=O)N1CCC[C@@H](n2nc(-c3ccc(Oc4ccccc4)cc3)c3c(N)ncnc32)C1 [Ibrutinib] + CC1(C)CCC(c2ccc(Cl)cc2)=C(CN2CCN(c3ccc(C(=O)NS(=O)(=O)c4ccc(N[C@H](CCN5CCOCC5)CSc5ccccc5)c(S(=O)(=O)C(F)(F)F)c4)cc3)CC2)C1 [Navitoclax] (partner 0.5 µM)
Procedure, shortened: as §1

PAC-1 + OSI-027 = compound: C=CCc1cccc(/C=N/NC(=O)CN2CCN(Cc3ccccc3)CC2)c1O [PAC-1] + COc1cccc2cc(-c3nc([C@H]4CC[C@H](C(=O)O)CC4)n4ncnc(N)c34)[nH]c12 [OSI-027] (partner 0.5 µM)
Procedure, shortened: as §1

BMX-IN-1 + Bortezomib = compound: C=CC(=O)Nc1cc(-n2c(=O)ccc3cnc4ccc(-c5ccc(NS(C)(=O)=O)cc5)cc4c32)ccc1C [BMX-IN-1] + CC(C)C[C@H](NC(=O)[C@H](Cc1ccccc1)NC(=O)c1cnccn1)B(O)O [Bortezomib] (partner 0.002 µM)
Procedure, shortened: as §1

Cell Line	relative viability (BMX-IN-1 + Linsitinib; first compound 0.02 µM)	relative viability (BMX-IN-1 + Linsitinib; first compound 0.2 µM)	relative viability (BMX-IN-1 + Linsitinib; first compound 0.6325 µM)	relative viability (BMX-IN-1 + Linsitinib; first compound 2 µM)	relative viability (Ibrutinib + Navitoclax; first compound 0.005 µM)	relative viability (Ibrutinib + Navitoclax; first compound 0.01581 µM)	relative viability (Ibrutinib + Navitoclax; first compound 0.05 µM)	relative viability (Ibrutinib + Navitoclax; first compound 0.1581 µM)	relative viability (Ibrutinib + Navitoclax; first compound 0.5 µM)	relative viability (PAC-1 + OSI-027; first compound 0.02 µM)	relative viability (PAC-1 + OSI-027; first compound 0.06325 µM)	relative viability (PAC-1 + OSI-027; first compound 0.2 µM)	relative viability (PAC-1 + OSI-027; first compound 2 µM)	relative viability (BMX-IN-1 + Bortezomib; first compound 0.02 µM)	relative viability (BMX-IN-1 + Bortezomib; first compound 0.2 µM)	relative viability (BMX-IN-1 + Bortezomib; first compound 0.6325 µM)	relative viability (BMX-IN-1 + Bortezomib; first compound 2 µM)
NCI-H23	0.614	0.606	0.471	0.548	0.853	0.886	0.771	0.787	0.97	0.629	0.493	0.589	0.65	1.23	1.46	1.18	1.06
NCI-H322M	0.911	0.971	0.891	0.975	1.21	1.18	1.26	1.25	0.724	0.547	0.586	0.543	0.505	1.33	1.25	1.2	1.36
NCI-H441	0.594	0.705	0.499	0.696	0.561	0.556	0.601	0.731	0.733	0.521	0.759	0.501	0.413	0.483	0.517	0.483	0.27
NCI-H460	1.04	1.07	1.45	0.777	1.27	1.01	1.09	1.2	1.13	0.582	0.727	0.626	0.637	1.94	–	1.29	1.03
NCI-H520	1.09	1.2	1.36	1.02	1.02	1.08	1.21	1.13	0.959	0.299	0.275	0.265	0.259	0.604	0.741	0.863	0.465
NCI-H596	1.12	1.21	1.02	0.936	0.924	0.867	0.852	0.962	0.681	0.733	0.745	0.695	0.719	0.9	1.28	1.31	0.988
NCI-H647	1.36	1.8	1.25	1.02	1.09	1.13	1.22	1.05	1.1	0.684	0.762	0.594	0.617	1.15	1.42	1.24	1.01
NCI-H727	0.325	0.393	0.261	0.27	0.475	0.405	0.374	0.449	0.42	0.641	0.689	0.619	0.622	1	0.869	1.05	0.939
NCI-H838	1.19	1.26	1.2	1.08	1.18	1.12	1.23	1.17	1.21	0.359	0.386	0.373	0.398	0.724	0.803	0.95	0.777
NCI-H1355	0.873	0.827	0.867	0.853	–	0.904	0.918	0.96	0.801	0.403	0.436	0.404	0.438	1.26	1.21	1.4	1.22
NCI-H1437	1.35	1.21	1.14	1.03	1.14	–	1.11	1.13	1.14	0.893	0.867	0.82	0.762	0.567	0.472	0.586	0.456
NCI-H1651	1.22	0.885	0.912	0.86	0.853	1.03	1.12	1	0.837	0.766	0.744	0.64	0.612	0.959	1.06	0.921	0.951
NCI-H1666	0.872	0.891	0.797	0.595	0.762	0.806	0.521	1.06	0.451	0.848	0.866	0.777	0.849	0.799	0.821	0.823	0.728
NCI-H1734	1.02	0.982	0.981	0.902	0.839	0.821	0.794	0.869	0.726	0.607	0.589	0.522	0.642	1.05	1.24	0.964	1.17
NCI-H1755	1.04	1.09	1.1	1	0.988	1.02	–	1.09	0.952	0.717	0.722	0.601	0.72	0.971	1	1	0.987
NCI-H1792	0.431	0.795	0.449	0.51	0.669	0.694	0.69	0.474	0.599	0.731	0.715	0.684	0.733	1.25	1.4	0.912	0.956
NCI-H1915	1.14	1.1	1.14	1.1	–	0.767	0.799	0.793	0.795	0.603	0.621	0.592	0.586	1.31	1.14	1.08	0.994

Cell Line	relative viability (BMX-IN-1 + Linsitinib; first compound 0.02 µM)	relative viability (BMX-IN-1 + Linsitinib; first compound 0.2 µM)	relative viability (BMX-IN-1 + Linsitinib; first compound 0.6325 µM)	relative viability (BMX-IN-1 + Linsitinib; first compound 2 µM)	relative viability (Ibrutinib + Navitoclax; first compound 0.005 µM)	relative viability (Ibrutinib + Navitoclax; first compound 0.01581 µM)	relative viability (Ibrutinib + Navitoclax; first compound 0.05 µM)	relative viability (Ibrutinib + Navitoclax; first compound 0.1581 µM)	relative viability (Ibrutinib + Navitoclax; first compound 0.5 µM)	relative viability (PAC-1 + OSI-027; first compound 0.02 µM)	relative viability (PAC-1 + OSI-027; first compound 0.06325 µM)	relative viability (PAC-1 + OSI-027; first compound 0.2 µM)	relative viability (PAC-1 + OSI-027; first compound 2 µM)	relative viability (BMX-IN-1 + Bortezomib; first compound 0.02 µM)	relative viability (BMX-IN-1 + Bortezomib; first compound 0.2 µM)	relative viability (BMX-IN-1 + Bortezomib; first compound 0.6325 µM)	relative viability (BMX-IN-1 + Bortezomib; first compound 2 µM)
NCI-H1975	1.22	1.09	1.06	0.855	1.04	1.14	1.08	1.09	0.637	0.826	0.62	0.704	0.842	0.356	0.338	0.45	0.433
NCI-H1993	0.68	0.721	–	0.636	0.807	0.7	0.75	–	0.742	0.485	0.576	0.634	0.545	1.1	1.11	–	0.959
NCI-H2009	1.27	1.27	1.29	1.2	1.13	1.12	1.22	1.21	1.16	0.645	0.614	0.582	0.669	1.07	1.19	1.16	1.01
NCI-H2023	0.798	0.695	0.769	0.726	1.02	0.919	0.884	1.07	0.871	0.429	0.404	0.333	0.357	1.21	1.19	1.27	1.08
NCI-H2085	0.915	0.934	1.04	0.97	1.1	1.13	1	1.13	–	0.755	0.713	0.66	0.754	1.14	0.998	1.2	1.16
NCI-H2087	1.14	1.11	1.34	1.1	1.05	0.952	1.12	1	0.939	0.467	0.58	0.401	0.497	1.09	0.959	1.07	0.814
NCI-H2126	0.74	0.659	0.747	0.678	–	0.803	0.801	0.861	0.588	0.725	0.717	0.712	0.687	1.13	1.17	1.19	1.19
NCI-H2228	0.969	0.907	0.848	0.648	0.859	0.838	0.932	0.911	0.836	0.543	0.513	0.512	0.564	1.66	1.03	1.47	1.12
NCI-H2347	1.1	1.02	1.04	0.958	0.898	0.724	0.846	0.729	0.717	0.4	0.395	0.38	0.46	0.985	1.24	1.14	1
NCI-H2405	1.01	0.875	0.975	0.921	0.923	0.812	0.731	–	0.98	0.65	0.638	0.598	0.71	0.989	1.1	0.999	1.01
NCI-H3122	1.04	1.08	1.01	1.02	1.06	0.971	1.06	0.956	1.06	1.25	0.972	0.919	0.925	1.04	0.974	1.05	0.994
PC-3 [JPC-3]	0.962	0.978	1.03	0.988	0.82	0.805	0.598	0.824	0.488	0.834	0.698	0.773	0.821	0.913	0.955	0.944	0.824
PC-14	1.04	1.05	1.01	0.973	1.04	1.05	1.12	1.05	0.922	1.07	0.727	0.779	0.911	0.934	0.953	1.01	0.954
RERF-LC-KJ	0.911	0.974	0.951	0.935	0.872	–	0.699	0.745	0.677	0.5	0.548	0.59	0.463	1.17	1.21	1.09	1.05
SK-LU-1	1.3	1.15	1.21	1.09	0.722	0.637	1.07	0.948	0.036	0.338	0.363	0.287	0.326	1.52	1.47	1.22	1.07
SW 1573	0.709	0.864	0.825	0.771	0.904	0.857	1.01	0.95	0.848	0.642	0.613	0.606	0.791	1.38	1.06	1.08	0.996
UMC-11	1.1	1.23	1.13	0.998	0.308	0.305	0.292	0.298	0.374	0.546	0.459	0.461	0.472	0.929	0.625	1.19	0.791
